Measurements: patent publication US11390617B2, “Methods of treating non-Hodgkin lymphoma using 2-(2,6-dioxopiperidin-3-yl)-4-((2-fluoro-4-((3-morpholinoazetidin-1-yl)methyl)benzyl)amino)isoindoline-1,3-dione” (Celgene Corporation, priority 2019, dated 2022)

System: RL follicular lymphoma xenograft tumors
Test: RL (follicular lymphoma) xenograft model, monotherapy
Format: in vivo, female SCID mice
Conditions: 5 days on 2 days off for 3 weeks
Experimental: Anti-tumor activity of Compound 1 was evaluated as monotherapy (between 1 and 30 mg/kg, qd) in RL (follicular lymphoma) xenograft model.
Xenograft study was conducted with female SCID mice bearing RL follicular lymphoma xenograft tumors. Female SCID mice were inoculated subcutaneously with RL cells in the flank region above the right hind leg. Following inoculation of animals, the tumors were allowed to grow to approximately 200 mm^3 prior to randomization. On day 14 following tumor cell inoculation, the mice bearing RL tumors ranging between 150 and 250 mm^3 were pooled together and randomized into various treatment groups. Compound 1 was formulated in 0.5% Methyl Cellulose, 0.25% Tween 80 and 50 mM Citrate pH 3 in water. Compound 1 at 1, 3, 10 or 30 mg/kg was orally administered once daily with a 5 days on and 2 days off schedule for 3 weeks starting from day 14 after tumor cell inoculation. Tumors were measured twice a week using calipers and tumor volumes were calculated using the formula of W^2×L/2. Statistical analysis was performed using a one-way or 2-way analysis of variance (ANOVA). Synergy calculations were performed using fractional product method.

[1] = 3, 10 and 30 mg/kg oral once daily

O=C1CC[C@H](N2C(=O)c3cccc(NCc4ccc(CN5CC(N6CCOCC6)C5)cc4F)c3C2=O)C(=O)N1 [Compound 1, (S)-2-(2,6-dioxopiperidin-3-yl)-4-((2-fluoro-4-((3-morpholinoazetidin-1-yl)methyl)benzyl)amino)isoindoline-1,3-dione]
inhibited RL follicular lymphoma tumor growth (1 mg/kg oral once daily): −96.8%
tumor free animals [1]: all the animals became tumor free
tumor growth [1]: completely inhibited
